# Test results taken from patent US10517933B2, “Method of treating androgen receptor negative prostate tumors and their metastases” (DREXEL UNIVERSITY, priority 2015, dated 2019).
# “Also recorded” adds a separate entry of the source.
# What was measured:
# interleukin-1β = conditions: cited from earlier work
# [1] = test system: other members of the interleukin-1 family, including interleukin-1 alpha; conditions: cited from earlier work
# [2] = test system: mouse models of acute gout; conditions: in vivo; cited from earlier work
# [3] = test system: AR(−)/IL1β(+) human prostate cancer cells; assay: skeletal metastasis model: human prostate cancer cells inoculated via the left cardiac ventricle of mice; format: in vivo, mouse; conditions: subcutaneous anakinra from 24 hours before inoculation, then daily, FIGS. 3A-3B
# Experimental: Male C.B17-SC mice (Taconic) at six to eight weeks of age were anesthetized with ketamine (80 mg/kg) and xylazine (10 mg/kg) prior being inoculated with cancer cells via the left cardiac ventricle. For anakinra treatment, animals received an initial subcutaneous dose of vehicle (PBS) or anakinra (Swedish Orphan Biovitrum) 24 hours prior to cancer cell inoculation, then additional doses at the time of xenograft and daily thereafter until sacrifice.
# Prior to each weekly imaging session, animals were injected IP with 150 mg/kg D-Luciferin (PerkinElmer) and allowed to rest for ten minutes, then anesthetized using 3% isoflurane and transferred to the chamber of an IVIS Lumina XR (PerkinElmer), where they received 2% isoflurane throughout image acquisition. […]
# Fluorescent images of skeletal metastases were collected as described in Liu et al., 2013, Cancer Res. 73:3297-305. In experiments assessing arrival/colonization of the bone, animals were sacrificed and femora and tibia were imaged and processed using Nuance software and a standardized spectral library and total GFP-positive DTCs counted in the knee joint of each animal. Lung tissues from the same animals were sectioned at 80 μm at intervals across the organ and images of five random fields analyzed as described. […]
# [4] = test system: human bone mesenchymal stem cells; assay: induction of Carcinoma Associated Fibroblasts phenotype in human bone mesenchymal stem cells by IL1β or PC3-ML conditioned medium; format: cell-based; conditions: hMSCs exposed to IL1β or conditioned medium from PC3-ML cells
# Experimental: DU-145, 22Rv1. LNCaP, and VCaP human prostate cancer cell lines were purchased from ATCC: the PC3-ML cell line was derived from the parental PC-3 cell line as described in Wang M, Stearns M E, Isolation and characterization of PC-3 human prostatic tumor sublines which preferentially metastasize to select organs in S.C.I.D. mice. Differentiation. 1991; 48:115-25. All cell lines were authenticated by short tandem repeat profiling by IDEXX Radil and/or DDC Medical. Cells were cultured in Dulbecco's Modified Eagle Medium (DU-145, VCaP, and PC3-ML) or RPMI-1460 (22Rv1 and LNCaP) containing 10% fetal bovine serum and 0.1% gentamicin. Bone marrow-derived Human Mesenchymal Stem cells (Lonza) were used between passage 5 and 8 and cultured in α-MEM supplemented with 10% FBS, 1 ng/ml bFGF (R&D), and 0.1% gentamicin. Each cell line was cultured at 37° C. and 5% CO2 and discarded 10 passages following thawing. […]
# Cell lysates were obtained and Western Blotting analysis was performed as previously described. […] Chemiluminescent signals were obtained using SuperSignal West Femto substrate (Pierce) and detected with the Fluorochem 8900 imaging system and related software. […]
molecule,measurement,setting,value
"CSc1ccc(-c2nn(Cc3ccccc3)c(=O)cc2-c2ccc(Cl)cc2)cc1 [K-832, 2-benzyl-5-(4-chlorophenyl)-6-[4-(methylthio)phenyl]-2H-pyridazin-3-one]",inhibitory activity against production of interleukin-1β,interleukin-1β,high inhibitory activity
Canakinumab: a human monoclonal antibody targeted at interleukin-1 beta,cross-reactivity with other members of the interleukin-1 family,[1],no cross-reactivity
XOMA-052: a potent anti-IL1β humanized neutralizing antibody,activity in mouse models of acute gout,[2],active
"anakinra: recombinant, non-glycosylated version of human IL1 receptor antagonist prepared from cultures of genetically modified E. coli",progression at the skeletal level of human prostate cancer cells (bone metastatic tumor burden),[3],significantly impaired; also recorded: much less prone to skeletal colonization
same,morphological changes in alpha smooth muscle actin (CAF phenotype),[4]; FIG. 4A,inhibited
same,expression of the S100 A4 marker (CAF phenotype),[4]; FIG. 4B,inhibited
